One may read the IC50 as the concentration at which inhibition is half-maximal. Lower therefore signals inhibition by little substance.

For the assay, the target named is Human eIF4E (aa 28-217) / biotin labeled 4G2 peptide (Homo sapiens (Human), UniProt P06730). The experiment in a line: Human eIF4E/4G2 binding assay (TR-FRET). As to conditions: Human eIF4E/4G2 TR-FRET binding assay; head says IC50, legend says EC50. The gist of the method: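 Refolded His-tagged human eIF4E (aa 28-217), 82.5 nM working stock, preincubated 4 h at RT with compounds (10-point 2-fold series) in NaPi pH 6.5 buffer with DTT and gamma globulin. Biotin-4G2 peptide then added for 20 min, followed by Eu-streptavidin/APC-anti-His for 20 min; TR-FRET 665/615 nm ratio normalized, IC50 fitted.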
Human eIF4E (aa 28-217) / biotin labeled 4G2 peptide, sequence (P06730 28-217): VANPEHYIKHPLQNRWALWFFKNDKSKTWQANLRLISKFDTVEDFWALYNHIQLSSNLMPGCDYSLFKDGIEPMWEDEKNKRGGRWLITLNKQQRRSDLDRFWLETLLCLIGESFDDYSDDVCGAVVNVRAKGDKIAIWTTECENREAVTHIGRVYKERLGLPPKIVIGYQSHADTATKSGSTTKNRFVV
In general terms: Time-resolved FRET reads energy transfer from a long-lived donor to a nearby acceptor.
In turn, `CC(C)Cc1sc(N(CCC(=O)O)Cc2cccc(F)c2)nc1-c1ccc(Cl)c(Cl)c1` [I-51] came in with an IC50 of at most 1 µM.

`CC(C)Cc1sc(Nc2cccc(C(=O)NCCN)c2)nc1-c1ccc(Cl)c(Cl)c1` [I-218, N-(2-aminoethyl)-3-(4-(3,4-dichlorophenyl)-5-isobutylthiazol-2-ylamino)benzamide] showed an IC50 above 10 µM.

In turn, `CC(C)Cc1sc(N(CCC(=O)NCC(=O)O)Cc2ccccc2)nc1-c1ccc(Cl)c(Cl)c1` [I-196] registered an IC50 of 1 to 10 µM.

Take `CC(C)c1sc(Nc2ncccc2C(=O)O)nc1-c1ccc(Cl)c(Cl)c1` [I-258]: the IC50 is at most 1 µM.

In the case of `CC(C)Cc1sc(NCC(Cc2cccc3c2OCO3)C(=O)O)nc1-c1ccc(Cl)c(Cl)c1` (stereo not drawn) [I-19], the IC50 is at most 1 µM.

`CCOC(=O)c1sc(NCC(Cc2ccccc2)C(=O)O)nc1-c1ccc(Cl)c(Cl)c1` (stereo not drawn) [I-182, 2-benzyl-3-(4-(3,4-dichlorophenyl)-5-(ethoxycarbonyl)thiazol-2-ylamino)propanoic acid]: the IC50 is 1 to 10 µM.

As to `CC(C)Cc1sc(N(CCc2ccccc2)CC(=O)O)nc1-c1ccc(Cl)c(Cl)c1` [I-60], the IC50 is at most 1 µM.

With `COc1cc(-c2cnc(Nc3nc(-c4ccc(Cl)c(Cl)c4)c(C(C)C)s3)c(C(=O)O)c2)ccn1` [I-268], the IC50 was at most 1 µM.

For the compound `CSc1ccc(CC(CNc2nc(-c3ccc(Cl)c(Cl)c3)c(CC(C)C)s2)C(=O)O)cc1` (stereo not drawn) [I-174], the IC50 was at most 1 µM.

In turn, `CC(C)c1sc(Nc2cc(-c3ccccc3)sc2C(=O)O)nc1-c1ccc(Cl)c(C(F)(F)F)c1` [I-279, 3-(4-(4-chloro-3-(trifluoromethyl)phenyl)-5-isopropylthiazol-2-ylamino)-5-phenylthiophene-2-carboxylic acid] showed an IC50 of at most 1 µM.

Take `CC(C)Cc1sc(N(CCCCN)CCC(=O)O)nc1-c1ccc(Cl)c(Cl)c1` [I-146, 3-((4-aminobutyl)(4-(3,4-dichlorophenyl)-5-isobutylthiazol-2-yl)amino)propanoic acid]: the IC50 was above 10 µM.

As for `CC(C)Cc1sc(N(CCCN)Cc2ccccc2)nc1-c1ccc(Cl)c(Cl)c1` [I-191, N^1-benzyl-N^1-(4-(3,4-dichlorophenyl)-5-isobutylthiazol-2-yl)propane-1,3-diamine], the IC50 was 1 to 10 µM.

For `CC(C)Cc1sc(Nc2ccc(-c3ccccc3)c(C(=O)O)c2)nc1-c1ccc(Cl)c(Cl)c1` [I-216], the IC50 is at most 1 µM.

Compound `CC(C)Cc1sc(NCC(Cc2cccc(C(=O)N(C)C)c2)C(=O)O)nc1-c1ccc(Cl)c(Cl)c1` (stereo not drawn) [I-168, 3-(4-(3,4-dichlorophenyl)-5-isobutylthiazol-2-ylamino)-2-(3-(dimethylcarbamoyl)benzyl)propanoic acid] gave a concentration for half-maximal inhibition (IC50) of 1 to 10 µM.

Take `COCCN(CCC(=O)O)c1nc(-c2ccc(Cl)c(Cl)c2)c(CC(C)C)s1` [I-67]: the IC50 is 1 to 10 µM.

On to `CC(C)Cc1sc(N(CCC(=O)O)Cc2ccccc2)nc1-c1cccc(F)c1` [I-82], for which the IC50 is 1 to 10 µM.

As to `CC(C)Cc1sc(Nc2ccsc2C(=O)O)nc1-c1ccc(Cl)c(Cl)c1` [I-256], the half-inhibitory concentration (IC50) was at most 1 µM.

`O=C(O)C(CNc1nc(-c2ccc(Cl)c(Cl)c2)c(C2CCCC2)s1)Cc1ccccc1` (stereo not drawn) [I-177] gave an IC50 of at most 1 µM.

For `CC(C)c1sc(Nc2c(C(=O)O)sc3ccccc23)nc1-c1ccc(Cl)c(Cl)c1` [I-280], the IC50 is at most 1 µM.

Consider `Cc1ccc(CC(CNc2nc(-c3ccc(Cl)c(Cl)c3)c(CC(C)C)s2)C(=O)O)c(C)n1` (stereo not drawn) [I-157], for which the IC50 fell in the range of 1 to 10 µM.

Regarding `Cc1ccc(-c2nc(N(CCC(=O)O)Cc3ccccc3)sc2C(C)C)cc1C` [I-75], the IC50 was in the range of 1 to 10 µM.

For `CCOc1ccc(-c2nc(Nc3ncc(-c4cccs4)cc3C(=O)O)sc2CC(C)C)cc1Cl` [I-330], the IC50 was at most 1 µM.

In the case of `CC(C)Cc1sc(N(CCC(=O)O)Cc2c[nH]c3ccccc23)nc1-c1ccc(Cl)c(Cl)c1` [I-54], the IC50 was 1 to 10 µM.

Take `CC(C)Cc1sc(Nc2cc(C(=O)O)cc(-c3ccccc3)c2)nc1-c1ccc(Cl)c(Cl)c1` [I-215, 5-(4-(3,4-dichlorophenyl)-5-isobutylthiazol-2-ylamino)biphenyl-3-carboxylic acid]: the IC50 is at most 1 µM.

The compound `COc1ccc(-c2nc(N(CCC(=O)O)Cc3ccccc3)sc2C(C)C)cc1` [I-76] yielded an IC50 above 10 µM.

In turn, `CC(C)Cc1sc(Nc2ccccc2C#N)nc1-c1ccc(Cl)c(Cl)c1` [I-286] returned an IC50 above 10 µM.

Compound `Cc1c(-c2ccccc2)sc(C(=O)O)c1Nc1nc(-c2ccc(Cl)c(Cl)c2)c(CC(C)C)s1` [I-275] came in with an IC50 of at most 1 µM.

As for `CC(C)Cc1sc(NCc2cccnc2O)nc1-c1ccc(Cl)c(Cl)c1` [I-202], the IC50 is above 10 µM.

In turn, `CC(C)Cc1sc(N2CCN(C(=O)c3ccccc3)C(C(=O)O)C2)nc1-c1ccc(Cl)c(Cl)c1` (stereo not drawn) [I-246, 1-benzoyl-4-(4-(3,4-dichlorophenyl)-5-isobutylthiazol-2-yl)piperazine-2-carboxylic acid] returned an IC50 of 1 to 10 µM.

The compound `COc1cccc(-c2nc(NCC(Cc3cccc4[nH]ccc34)C(=O)O)sc2C(C)C)c1` (stereo not drawn) [I-35] had an IC50 of 1 to 10 µM.

The compound `CC(C)c1sc(NCC(Cc2cccc3cc[nH]c23)C(=O)O)nc1-c1ccc(Cl)c(Cl)c1` (stereo not drawn) [I-7, 2-((1H-indol-7-yl)methyl)-3-(4-(3,4-dichlorophenyl)-5-isopropylthiazol-2-ylamino) propanoic acid] showed an IC50 of at most 1 µM.

In turn, `CC(C)Cc1sc(NCC(Cc2cccc(F)c2)C(=O)O)nc1-c1ccc(Cl)c(Cl)c1` (stereo not drawn) [I-22] yielded an IC50 of at most 1 µM.

The compound `CC(C)Cc1sc(N(CCC(=O)O)Cc2ccccc2)nc1-c1cccnc1` [I-83] had an IC50 above 10 µM.

As for `CC(C)c1sc(NCC(Cc2ccc3[nH]ccc3c2)C(=O)O)nc1-c1ccc(Cl)c(Cl)c1` (stereo not drawn) [I-10], the IC50 was 1 to 10 µM.

For the compound `CC(C)Cc1sc(NCC(Cc2ccc(S(C)(=O)=O)cc2)C(=O)O)nc1-c1ccc(Cl)c(Cl)c1` (stereo not drawn) [I-175], the IC50 was 1 to 10 µM.

As for `CC(C)Cc1sc(N(CCS(=O)(=O)NC(=O)CN)Cc2ccccc2)nc1-c1ccc(Cl)c(Cl)c1` [I-187, 2-amino-N-(2-(benzyl(4-(3,4-dichlorophenyl)-5-isobutylthiazol-2-yl)amino)ethylsulfonyl)acetamide], the IC50 is above 10 µM.

For `CC(C)Cc1sc(NCC(Cc2ccc3[nH]ccc3c2)C(=O)O)nc1-c1ccc(Cl)c(Cl)c1` (stereo not drawn) [I-27], the IC50 is at most 1 µM.

`Cn1nnnc1-c1sc(Nc2ccsc2C(=O)O)nc1-c1ccc(Cl)c(Cl)c1` [I-269, 3-(4-(3,4-dichlorophenyl)-5-(1-methyl-1H-tetrazol-5-yl)thiazol-2-ylamino)thiophene-2-carboxylic acid] returned an IC50 of 1 to 10 µM.

`CC(C)Cc1sc(Nc2ncc(C(F)(F)F)cc2C(=O)O)nc1-c1ccc2ccccc2c1` [I-321] came in with an IC50 of at most 1 µM.

In turn, `CC(C)Cc1sc(Nc2cc(NC(=O)c3ccccc3)cc(C(=O)O)c2)nc1-c1ccc(Cl)c(Cl)c1` [I-217] yielded an IC50 of at most 1 µM.

In turn, `CC(C)Cc1sc(Nc2cccnc2C(=O)O)nc1-c1ccc(Cl)c(Cl)c1` [I-234, 3-(4-(3,4-dichlorophenyl)-5-isobutylthiazol-2-ylamino)picolinic acid] returned an IC50 of 1 to 10 µM.

In the case of `CC(C)Cc1sc(N(CCC(=O)O)Cc2cccc3c2OCO3)nc1-c1ccc(Cl)c(Cl)c1` [I-48], the IC50 is at most 1 µM.

In turn, `CC(C)c1sc(NCC(Cc2cccc(F)c2)C(=O)O)nc1-c1ccc(Cl)cc1` (stereo not drawn) [I-42] yielded an IC50 of 1 to 10 µM.

`COc1ccc(-c2nc(Nc3ncc(-c4cccs4)cc3C(=O)O)sc2C(C)C)cc1Cl` [I-324] registered an IC50 of at most 1 µM.

In the case of `CS(=O)(=O)c1sc(NCC(Cc2ccccc2)C(=O)O)nc1-c1ccc(Cl)c(Cl)c1` (stereo not drawn) [I-181, 2-benzyl-3-(4-(3,4-dichlorophenyl)-5-(methylsulfonyl)thiazol-2-ylamino)propanoic acid], the IC50 was above 10 µM.

`CC(C)Cc1sc(NCC(Cc2ccncc2)C(=O)O)nc1-c1ccc(Cl)c(Cl)c1` (stereo not drawn) [I-152] had an IC50 of 1 to 10 µM.

Compound `O=C(O)CCN(Cc1ccccc1)c1nc(-c2ccc(Cl)c(Cl)c2)c(C2CC2)s1` [I-56] gave an IC50 of 1 to 10 µM.

`COc1cccc(-c2cnc(Nc3nc(-c4ccc(Cl)c(Cl)c4)c(C(C)C)s3)c(C(=O)O)c2)c1` [I-267] had an IC50 of at most 1 µM.

Turning to `COc1ccccc1CN(CCC(=O)O)c1nc(-c2ccc(Cl)c(Cl)c2)c(CC(C)C)s1` [I-49], the IC50 was at most 1 µM.

`CSc1sc(NCC(Cc2ccccc2)C(=O)O)nc1-c1ccc(Cl)c(Cl)c1` (stereo not drawn) [I-206, 2-benzyl-3-(4-(3,4-dichlorophenyl)-5-(methylthio)thiazol-2-ylamino)propanoic acid]: the IC50 fell in the range of 1 to 10 µM.

Compound `CC(C)Cc1sc(N(CCC(=O)O)Cc2cccnc2)nc1-c1ccc(Cl)c(Cl)c1` [I-62] gave an IC50 of 1 to 10 µM.

Regarding `CC(C)c1sc(Nc2ncc(-c3cccs3)cc2C(=O)O)nc1-c1ccc(Cl)c(Cl)c1` [I-260], the IC50 is at most 1 µM.

`CC(C)Cc1sc(NCC(Cc2cccc3cc[nH]c23)C(=O)O)nc1-c1ccc(Cl)c(Cl)c1` (stereo not drawn) [I-24] yielded an IC50 of 1 to 10 µM.

Turning to `CC(C)Cc1sc(Nc2cc(-c3cccc(Cl)c3)sc2C(=O)O)nc1-c1ccc(Cl)c(Cl)c1` [I-272], the IC50 was at most 1 µM.

`CC(C)Cc1sc(N(CCC(=O)O)CCc2ccccc2)nc1-c1ccc(Cl)c(Cl)c1` [I-52] came in with an IC50 of at most 1 µM.

In the case of `CC(C)Cc1sc(N(CCC(=O)N(C)CCN)Cc2ccccc2)nc1-c1ccc(Cl)c(Cl)c1` [I-132], the IC50 fell in the range of 1 to 10 µM.

The compound `CC(C)Cc1sc(N(CCC(=O)O)Cc2ccccc2)nc1-c1ccncc1` [I-84] showed an IC50 above 10 µM.

Values taken from US11753403B2, “EIF4E inhibitors and uses thereof” (PIC Therapeutics, Inc., priority 2020, dated 2023).
